Here are results for two compounds from patent US20080171657A1, “5,6-Dialkyl-7-Aminoazolopyrimidines, Their Preparation and Their Use for Controlling Harmful Fungi, and Compositions Comprising These Compounds” (Basf Aktiengesellschaft, priority 2005, published 2008).

The structures appear in SMILES notation.

One data set concerns Puccinia recondita. The data set can be described thus: Protective activity against Puccinia recondita on wheat (brown rust of wheat). Type of data set: in vivo. Particulars: comparison to closest prior art; concentration not given; untreated 90. The protocol:
The active compounds were prepared as a stock solution comprising 25 mg of active compound which was made up to 10 ml using a mixture of acetone and/or DMSO and the emulsifier Uniperol® EL (wetting agent having emulsifying and dispersing action based on ethoxylated alkylphenols) in a volume ratio of solvent/emulsifier of 99/1. The mixture was then made up to 100 ml with water. This stock solution was diluted with the solvent/emulsifier/water mixture described to the concentration of active compound stated below. Protective Activity Against Puccinia recondita on Wheat (brown Rust of Wheat) Leaves of potted wheat seedlings of the cultivar “Kanzler” were sprayed to runoff point with an aqueous suspension having the concentration of active compounds stated below. The next day, the treated plants were inoculated with a spore suspension of brown rust of wheat (Puccinia recondite). The plants were then placed in a chamber with high atmospheric humidity (90 to 95%) at 20 to 22° C. for 24 hours. During this time, the spores germinated and the germ tubes penetrated into the leaf tissue. The next day, the test plants were returned to the greenhouse and cultivated at temperatures between 20 and 22° C. and 65 to 70% relative atmospheric humidity for a further 7 days. The extent of the rust fungus development on the leaves was then determined visually.

`CCCCCCc1c(CCC)nc2cc(C)nn2c1N` [I-1] showed a melting point of 132 to 134 °C. In addition, the Infection in % in the data set on Puccinia recondita is 20%.
Regarding `CCCCCc1c(CCC)nc2cc(C)nn2c1N` [compound 24, reference compound], the Infection in % in the data set with Puccinia recondita was 40%.
